According to patent US20230114241A1, “METHODS OF TREATING EPILEPSY USING THE SAME” (Trevena, Inc., priority 2019, published 2023):

Experiments:
[1] = molecular target: T1, human sphingosine-1-phosphate receptor 1 (S1P1) (Homo sapiens, UniProt P21453); experiment: Inhibition of cAMP production (HTRF cAMP HiRange), S1P1 CHO-K1 cells; assay type: cell-based; details: for Emax: CHO-K1, efficacy normalized to maximum efficacy of fingolimod, read-out: hS1P1 CAMP SPAN; for EC50: read-out: hS1P1 CAMP pEC50 (converted)
Method in brief: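 Intracellular cAMP changes read by TR-FRET (HTRF HiRange, 1 h room temperature) after 30 min compound exposure at 37 °C. Cells: overnight-plated CHO-K1 stably expressing tagged human S1P1 with EA-β-arrestin2. Responses normalized to fingolimod.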
Target sequence in this assay (P21453 whole entry): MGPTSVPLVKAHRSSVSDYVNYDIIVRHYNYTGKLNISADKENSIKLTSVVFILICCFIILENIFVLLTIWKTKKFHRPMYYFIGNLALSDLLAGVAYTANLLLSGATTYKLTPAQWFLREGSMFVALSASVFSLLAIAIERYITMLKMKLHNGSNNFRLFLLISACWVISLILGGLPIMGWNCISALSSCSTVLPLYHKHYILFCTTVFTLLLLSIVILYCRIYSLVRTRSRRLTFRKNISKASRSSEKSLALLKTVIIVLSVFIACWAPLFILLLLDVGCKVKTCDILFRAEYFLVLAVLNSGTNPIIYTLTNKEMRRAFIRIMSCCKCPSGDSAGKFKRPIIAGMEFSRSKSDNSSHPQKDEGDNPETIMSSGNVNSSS

[2] = molecular target: T1, human sphingosine-1-phosphate receptor 1 (S1P1); experiment: β-Arrestin2 recruitment assay (PathHunter), S1P1 CHO-K1 cells; assay type: cell-based; details: for Emax: efficacy normalized to maximum efficacy of fingolimod, read-out: hS1P1 B-arrestin2 SPAN; for EC50: β-arrestin2 recruitment, read-out: hS1P1 B-arrestin2 pEC50 (converted)
Method in brief: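 Agonist-driven β-arrestin2 recruitment measured by β-galactosidase complementation after 60 min compound exposure at 37 °C and 1 h detection at room temperature. Cells: stable CHO-K1 line expressing tagged human S1P1 with EA-β-arrestin2, plated the night before. Data expressed relative to fingolimod.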
Target sequence in this assay (P21453 whole entry): as above
Target sequence in this assay (P32121 whole entry partner): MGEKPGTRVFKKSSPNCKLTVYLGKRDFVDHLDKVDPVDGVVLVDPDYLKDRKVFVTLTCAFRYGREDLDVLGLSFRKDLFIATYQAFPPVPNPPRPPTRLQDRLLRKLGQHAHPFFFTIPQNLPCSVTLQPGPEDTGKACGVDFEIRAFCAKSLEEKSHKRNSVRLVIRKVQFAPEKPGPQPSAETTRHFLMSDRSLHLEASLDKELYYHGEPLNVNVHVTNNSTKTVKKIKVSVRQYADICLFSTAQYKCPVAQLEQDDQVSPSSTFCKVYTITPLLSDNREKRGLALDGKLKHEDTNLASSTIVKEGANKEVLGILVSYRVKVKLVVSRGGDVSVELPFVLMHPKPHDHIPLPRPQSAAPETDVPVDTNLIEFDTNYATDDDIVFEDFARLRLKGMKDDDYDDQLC

[3] = inhibition of cAMP production, potency
[4] = CHO-K1, β-arrestin2 recruitment
[5] = inhibition of cAMP production, S1P1

SMILES | Emax ([1]; inhibition of cAMP production) [%] | EC50 [1, 3] [µM] | Emax [2, 4] [%] | EC50 ([2]; potency) [µM] | Emax [1] [%] | EC50 [1, 5] [µM] | Emax ([2]; CHO-K1) [%] | EC50 ([2]; S1P1) [µM]
CSc1ccccc1-c1nc(-c2ccc3c(c2)nnn3C2CCCC2)no1 [Compound 16, 3-(1-cyclopentyl-1H-benzo[d][1,2,3]triazol-5-yl)-5-(2-(methylthio)phenyl)-1,2,4-oxadiazole] | < 75 | > 0.316 | > 75 | < 10 | – | – | – | –
Cc1nc(-c2ccccc2)oc1-c1cnc2c(c1)CC(=O)N2 [Compound 360, 5-(4-methyl-2-phenyl-1,3-oxazol-5-yl)-1H,2H,3H-pyrrolo[2,3-b]pyridin-2-one] | < 75 | > 0.316 | < 75 | > 10 | – | – | – | –
CC(C)Oc1ccc(-c2noc(-c3ccc4c(c3)nnn4C(C)C)n2)cc1C(F)(F)F [Compound 20, 3-(4-isopropoxy-3-(trifluoromethyl)phenyl)-5-(1-isopropyl-1H-benzo[d][1,2,3]triazol-5-yl)-1,2,4-oxadiazole] | > 75 | < 0.316 | > 75 | < 10 | – | – | – | –
Cc1ccccc1-c1nc(-c2ccc3c(ccn3C(C)C)c2)no1 [Compound 389, 3-(1-isopropyl-1H-indol-5-yl)-5-(o-tolyl)-1,2,4-oxadiazole] | – | – | – | – | > 75 | < 0.316 | > 75 | < 10
Cc1ccsc1-c1nc(-c2ccc3c(c2)nnn3CC(C)(C)CO)no1 [Compound 524, 2,2-dimethyl-3-(5-(5-(3-methylthiophen-2-yl)-1,2,4-oxadiazol-3-yl)-1H-benzo[d] [1,2,3]triazol-1-yl)propan-1-ol] | – | – | – | – | > 75 | < 0.316 | < 75 | < 10
Cc1ccncc1-c1nc(-c2ccc3c(c2)nnn3CC(C)(C)CO)no1 [Compound 541, 2,2-dimethyl-3-(5-(5-(4-methylpyridin-3-yl)-1,2,4-oxadiazol-3-yl)-1H-benzo[d] [1,2,3]triazol-1-yl)propan-1-ol] | – | – | – | – | < 75 | > 0.316 | < 75 | > 10
Cc1ccccc1-c1nc(-c2ccc3c(c2)nnn3C(C)(C)CO)no1 [Compound 609, 2-methyl-2-(5-(5-(o-tolyl)-1,2,4-oxadiazol-3-yl)-1H-benzo[d] [1,2,3]triazol-1-yl)propan-1-ol] | – | – | – | – | < 75 | < 0.316 | < 75 | > 10
CC(C)n1ccc2cc(-c3noc(-c4ccccn4)n3)ccc21 [Compound 397, 3-(1-isopropyl-1H-indol-5-yl)-5-(pyridin-2-yl)-1,2,4-oxadiazole] | – | – | – | – | < 75 | > 0.316 | > 75 | > 10
CC(C)n1ccc2nc(-c3nc(-c4ccccc4Br)cs3)ccc21 [Compound 412, 4-(2-bromophenyl)-2-(1-isopropyl-1H-pyrrolo[3,2-b]pyridin-5-yl)thiazole] | – | – | – | – | > 75 | > 0.316 | < 75 | > 10
c1ccc(-c2noc(-c3ccc4c(c3)nnn4C3CCCC3)n2)cc1 [Compound 7, 1-cyclopentyl-5-(3-phenyl-1,2,4-oxadiazol-5-yl)-1H-1,2,3-benzotriazole] | > 75 | > 0.316 | > 75 | > 10 | – | – | – | –
CCC1(CC)CC(=O)c2cc(-c3nc(-c4cccnc4O)no3)ccc2O1 [Compound 258, 2,2-diethyl-6-(3-(2-hydroxypyridin-3-yl)-1,2,4-oxadiazol-5-yl)chroman-4-one] | < 75 | > 0.316 | < 75 | > 10 | – | – | – | –
COc1ccccc1-c1noc(-c2ccc3c(cnn3C(C)C)c2)n1 [Compound 370, 5-(1-isopropyl-1H-indazol-5-yl)-3-(2-methoxyphenyl)-1,2,4-oxadiazole] | > 75 | < 0.316 | > 75 | < 10 | – | – | – | –
Cc1cncc(-c2nc(-c3ccc4c(c3)nnn4C(C)C)no2)n1 [Compound 229, 3-(1-isopropyl-1H-benzo[d][1,2,3]triazol-5-yl)-5-(6-methyl-pyrazin-2-yl)-1,2,4-oxadiazole] | < 75 | > 0.316 | < 75 | < 10 | – | – | – | –
COc1cccc(-c2nc(-c3ccc4[nH]ccc4c3)ns2)c1 [Compound 364, 5-[5-(3-methoxyphenyl)-1,2,4-thiadiazol-3-yl]-1H-indole] | > 75 | > 0.316 | < 75 | > 10 | – | – | – | –
CC(C)Oc1ccccc1-c1noc(-c2ccc3c(c2)nnn3C(C)C)n1 [Compound 62, 3-(2-isopropoxyphenyl)-5-(1-isopropyl-1H-benzo[d][1,2,3]triazol-5-yl)-1,2,4-oxadiazole] | > 75 | > 0.316 | > 75 | > 10 | – | – | – | –
CC(C)n1ccc2cc(-c3nc(-c4ccccc4C(F)(F)F)cs3)cnc21 [Compound 408, 2-(1-isopropylpyrrolo[2,3-b]pyridin-5-yl)-4-[2-(trifluoromethyl)phenyl] thiazole] | – | – | – | – | > 75 | > 0.316 | < 75 | > 10
Cc1cccc(-c2nc(-c3ccc4c(c3)nnn4C3CCCC3)no2)c1 [Compound 273, 3-(1-cyclopentyl-1H-benzo[d][1,2,3]triazol-5-yl)-5-(m-tolyl)-1,2,4-oxadiazole] | < 75 | > 0.316 | < 75 | > 10 | – | – | – | –

The next lines start with the values.

Emax ([1]; inhibition of cAMP production) [%] | EC50 [1, 3] [µM] | Emax [2, 4] [%] | EC50 ([2]; potency) [µM] | Emax [1] [%] | EC50 [1, 5] [µM] | Emax ([2]; CHO-K1) [%] | EC50 ([2]; S1P1) [µM] | SMILES
– | – | – | – | < 75 | > 0.316 | < 75 | > 10 | CCC1(CC)CC(=O)c2cc(-c3nc(-c4ccc5nonc5c4)no3)ccc2O1 [Compound 500, 6-[3-(2,1,3-benzoxadiazol-5-yl)-1,2,4-oxadiazol-5-yl]-2,2-diethyl-3,4-dihydro-2H-1-benzopyran-4-one]
– | – | – | – | > 75 | > 0.316 | < 75 | > 10 | O=C1CNc2ccc(-c3nc(-c4cccnc4)no3)cc2N1 [Compound 629, 7-[3-(pyridin-3-yl)-1,2,4-oxadiazol-5-yl]-1,2,3,4-tetra-hydroquinoxalin-2-one]
– | – | – | – | > 75 | > 0.316 | < 75 | > 10 | N#Cc1cc(-c2nnc(-c3ccc4c(c3)ncn4CCO)o2)ccc1NCC(F)F [Compound 578, 2-[(2,2-difluoro-ethyl)amino]-5-{5-[1-(2-hydroxyethyl)-1H-1,3-benzodiazol-5-yl]-1,3,4-oxadiazol-2-yl}benzonitrile]
> 75 | < 0.316 | > 75 | < 10 | – | – | – | – | C=CCNc1ccc(-c2nc(-c3ccc4[nH]c(=O)oc4c3)no2)cc1C#N [Compound 189, 2-(allylamino)-5-(3-(2-oxo-2,3-dihydro-benzo[d]oxazol-6-yl)-1,2,4-oxadiazol-5-yl)benzonitrile]
– | – | – | – | < 75 | > 0.316 | < 75 | > 10 | Cn1cnc2ccc(-c3nnc(-c4ccc(NC(C)(C)CO)c(C#N)c4)o3)cc21 [Compound 634, 2-[(1-hydroxy-2-methylpropan-2-yl)amino]-5-[5-(1-methyl-1H-1,3-benzodiazol-6-yl)-1,3,4-oxadiazol-2-yl]benzonitrile]
– | – | – | – | > 75 | < 0.316 | > 75 | < 10 | CC(C)Nc1ccc(-c2nc(-c3ccc4c(c3)NC(=O)CC4)no2)cc1C#N [Compound 435, 2-(isopropylamino)-5-(3-(2-oxo-1,2,3,4-tetrahydroquinolin-7-yl)-1,2,4-oxadiazol-5-yl)benzonitrile]
– | – | – | – | > 75 | < 0.316 | > 75 | < 10 | CCC1(CC)CC(=O)c2cc(-c3nc(-c4cnccc4C)no3)ccc2O1 [Compound 549, 2,2-diethyl-6-(3-(4-methylpyridin-3-yl)-1,2,4-oxadiazol-5-yl)chroman-4-one]
– | – | – | – | > 75 | < 0.316 | > 75 | < 10 | N#Cc1cc(-c2nc(-c3ccc4c(c3)NC(=O)CC4)no2)ccc1NCC1CC1 [Compound 471, 2-((cyclopropyl-methyl)amino)-5-(3-(2-oxo-1,2,3,4-tetrahydroquinolin-7-yl)-1,2,4-oxadiazol-5-yl)benzonitrile]
< 75 | > 0.316 | < 75 | > 10 | – | – | – | – | CCCn1nnc2cc(-c3nc(-c4ccc(F)cc4)no3)ccc21 [Compound 5, 5-[3-(4-fluorophenyl)-1,2,4-oxadiazol-5-yl]-1-propyl-1H-1,2,3-benzotriazole]
< 75 | > 0.316 | < 75 | > 10 | – | – | – | – | CCCn1nnc2cc(-c3nc(-c4ccc(C(F)(F)F)c(F)c4)no3)ccc21 [Compound 193, 5-{3-[3-fluoro-4-(trifluoromethyl)phenyl]-1,2,4-oxadiazol-5-yl}-1-propyl-1H-1,2,3-benzotriazole]
– | – | – | – | < 75 | > 0.316 | < 75 | > 10 | Cn1cnc2cc(-c3nnc(-c4ccc(NCC(F)F)c(C#N)c4)o3)ccc21 [Compound 573, 2-[(2,2-difluoro-ethyl)amino]-5-[5-(1-methyl-1H-1,3-benzodiazol-5-yl)-1,3,4-oxadiazol-2-yl]benzonitrile]
